This note sets out measurements from patent EP0353827A2, “New immunosuppressant-producing culture” (MERCK & CO. INC., priority 1988, dated 1990).

The subject of the assay is mouse T lymphocytes stimulated with the combination of ionomycin plus PMA. The assay can be described thus: T-cell proliferation assay (ionomycin plus PMA induced T-cell stimulation, tritiated thymidine uptake). The assay is classed as cell-based. The note with it: for immunosuppressive activity, inhibition of T-cell activation: qualitative statement.

Excerpt: The principle of this assay is to measure the proliferation of mouse T lymphocytes stimulated with the combination of ionomycin plus PMA. A positive sample in this assay will inhibit T-cell proliferation, as indicated by reduced tritiated thymidine uptake.
Spleens from C57B1/6 mice were taken under sterile conditions and gently dissociated in ice-cold RPMI 1640 culture medium (GIBCO, Grand Island, N.Y.) supplemented with 10% heat-inactivated fetal calf serum (GIBCO). Cells were pelleted by centrifugation at 1500 rpm for 8 minutes. Contaminating red cells were removed by treating the pellet with ammonium chloride lysing buffer (GIBCO) for 2 minutes at 4°C. Cold medium was added and cells were again centrifuged at 1500 rpm for 8 minutes. T lymphocytes were then isolated by separation of the cell suspension on nylon wool columns as follows: Nylon wool columns were prepared by packing approximately 4 grams of washed and dried nylon wool into 20 ml plastic syringes. The columns were sterilized by autoclaving at 250°F for 30 minutes. Nylon wool columns were wetted with warm (37°C) culture medium and rinsed with the same medium. Washed spleen cells resuspended in warm medium were slowly applied to the nylon wool. The columns were then incubated in an upright position at 37°C for 1 hour. Non-adherent T lymphocytes were eluted from the columns with warm culture medium and the cell suspensions were spun as above.
Purified T lymphocytes were resuspended at 2.5 x 10⁵ cells/ml in complete culture medium composed of RPMI 1640 medium with 10% heat-inactivated fetal calf serum, 100 mM glutamine, 1 mM sodium pyruvate, 2 x 10⁻⁵ M 2-mercaptoethanol and 50 µg/ml gentamycin. Ionomycin was added at 250 ng/ml and PMA at 10 ng/ml. The cell suspension was immediately distributed into 96 well flat-bottom microculture plates (Costar) at 200 µl/well. […] L-679,934 was used as a standard. The culture plates were then incubated at 37°C in a humidified atmosphere of 5% CO₂-95% air for 44 hours. The proliferation of T lymphocytes was assessed by measurement of tritiated thymidine incorporation. After 44 hours of culturing, the cells were pulse-labelled with 2 µCi/well of tritiated thymidine (NEN, Cambridge, MA). After another 4 hours of incubation, cultures were harvested on glass fiber filters using a multiple sample harvester. Radioactivity of filter discs corresponding to individual wells was measured by standard liquid scintillation counting methods (Betacounter). Mean counts per minute of replicate wells were calculated and the results expressed as percent inhibition of tritiated thymidine uptake (proliferation) as follows: [formula]
Purified T lymphocytes were resuspended at 2.5 x 10⁵ cells/ml in complete culture medium composed of RPMI 1640 medium with 10% heat-inactivated fetal calf serum, 100 mM glutamine, 1 mM sodium pyruvate, 2 x 10⁻⁵ M 2-mercaptoethanol and 50 µg/ml gentamycin. Ionomycin was added at 250 ng/ml and PMA at 10 ng/ml. The cell suspension was immediately distributed into 96 well flat-bottom microculture plates (Costar) at 200 µl/well. […] L-679,934 was used as a standard. The culture plates were then incubated at 37°C in a humidified atmosphere of 5% CO₂-95% air for 44 hours. The proliferation of T lymphocytes was assessed by measurement of tritiated thymidine incorporation. After 44 hours of culturing, the cells were pulse-labelled with 2 µCi/well of tritiated thymidine (NEN, Cambridge, MA). After another 4 hours of incubation, cultures were harvested on glass fiber filters using a multiple sample harvester.

In the case of `C=CC[C@@H]1/C=C(\C)C[C@H](C)C[C@H](OC)[C@H]2O[C@@](O)(C(=O)C(=O)N3CCCC[C@H]3C(=O)O[C@H](/C(C)=C/[C@@H]3CC[C@@H](O)[C@H](OC)C3)[C@H](C)[C@@H](O)CC1=O)[C@H](C)C[C@@H]2OC` [L-679,934, reference compound], the inhibition at 0.01 µg/mL (Mus musculus, T-lymphocyte, 10 ng/ml, ³H-thymidine pulse 4 hours, harvest at 48 hours) came to 99%.

For `CC[C@@H]1/C=C(\C)C[C@H](C)C[C@H](OC)[C@H]2O[C@@](O)(C(=O)C(=O)N3CCCC[C@H]3C(=O)O[C@H](/C(C)=C/[C@@H]3CC[C@@H](O)[C@H](O)C3)[C@H](C)[C@@H](O)CC1=O)[C@H](C)C[C@@H]2OC` [demethimmunomycin, 31-desmethoxy-31-hydroxy-L-683,590], the “immunosuppressive activity, inhibition of T-cell activation” value was “positive inhibition of T-cell activation”. In addition, where the note is “0.6 ng/ml, ³H-thymidine pulse 4 hours, harvest at 48 hours”, the “% Inhibition” value is reported as 0%. For the same compound, the “% Inhibition” value (0.9 ng/ml, ³H-thymidine pulse 4 hours, harvest at 48 hours) stood at 9.0%. Further, for the setting “1.3 ng/ml, ³H-thymidine pulse 4 hours, harvest at 48 hours”, the “% Inhibition” value is 38.2%. The “% Inhibition” value (1.9 ng/ml, ³H-thymidine pulse 4 hours, harvest at 48 hours) turned out to be 72.1%. Also, the “% Inhibition” value (2.9 ng/ml, ³H-thymidine pulse 4 hours, harvest at 48 hours) is 86.3%. Besides, the “% Inhibition” value (4.4 ng/ml, ³H-thymidine pulse 4 hours, harvest at 48 hours) is recorded as 91.9%. Further, for the setting “6.6 ng/ml, ³H-thymidine pulse 4 hours, harvest at 48 hours”, the “% Inhibition” value was found to be 97.9%. The “% Inhibition” value (10 ng/ml, ³H-thymidine pulse 4 hours, harvest at 48 hours) is reported as 98.6%.

For `C=CC[C@@H]1/C=C(\C)C[C@H](C)C[C@H](OC)[C@H]2O[C@@](O)(C(=O)C(=O)N3CCCC[C@H]3C(=O)O[C@H](/C(C)=C/[C@@H]3CC[C@@H](O)[C@H](O)C3)[C@H](C)[C@@H](O)CC1=O)[C@H](C)C[C@@H]2OC` [demethomycin, 31-desmethoxy-31-hydroxy-L-679,934], the “immunosuppressive activity, inhibition of T-cell activation” value is listed as “positive inhibition of T-cell activation”. Moreover, for the setting “0.29 ng/ml, ³H-thymidine pulse 4 hours, harvest at 48 hours”, the “% Inhibition” value was determined as 0%. Further, the “% Inhibition” value (0.44 ng/ml, ³H-thymidine pulse 4 hours, harvest at 48 hours) is on record as 0%. The “% Inhibition” value (0.66 ng/ml, ³H-thymidine pulse 4 hours, harvest at 48 hours) came to 36.8%. The “% Inhibition” value (0.99 ng/ml, ³H-thymidine pulse 4 hours, harvest at 48 hours) came to 67.1%. Also, the “% Inhibition” value (1.5 ng/ml, ³H-thymidine pulse 4 hours, harvest at 48 hours) is given as 80.5%. In addition, the “% Inhibition” value (2.2 ng/ml, ³H-thymidine pulse 4 hours, harvest at 48 hours) was 92.9%. Moreover, the “% Inhibition” value (3.3 ng/ml, ³H-thymidine pulse 4 hours, harvest at 48 hours) turned out to be 97.2%. Moreover, where the note is “5 ng/ml, ³H-thymidine pulse 4 hours, harvest at 48 hours”, the “% Inhibition” value is given as 98.1%.

In general, inhibition refers to how much of the control response was suppressed. In general, % Inhibition refers to the percentage by which the read-out fell short of the control.
